Measured values as given in patent US7105512B2, “Ophthalmic aqueous pharmaceutical preparation” (Wakamoto Pharmaceutical Co., Ltd., priority 1999, dated 2006).
Values joined by “and” are separate entries in the source; they are usually repeats but may differ in a detail not shown here. Identical values can stand only once. Counter-ions that a name gives are not always drawn.

Legend:
[1] = Solubility of meloxicam in water near the neutral pH region; type: physicochemical; details: at 25° C.
[2] = Comparison of solubility in water of meloxicam salts by UV analysis
[3] = pH of the aqueous solution at the concentration of the same line, below saturation
[4] = pH of the saturated aqueous solution (SAS)

Row | solubility of meloxicam in water, saturated concentration [1] | pH [2, 3] | pH [2, 4] | SMILES
1 | about 0.2 mg/100 mL |  |  | Cc1cnc(NC(=O)C2=C(O)c3ccccc3S(=O)(=O)N2C)s1 [meloxicam]
2 |  | 8.57 and 8.64 and 8.73 | 9.02 | CNC[C@H](O)[C@@H](O)[C@H](O)[C@H](O)CO.Cc1cnc(NC(=O)C2=C(O)c3ccccc3S(=O)(=O)N2C)s1 [Meglumine Salt, meglumine salt of meloxicam]
3 |  | 7.52 and 7.71 | 7.93 | Cc1cnc(NC(=O)C2=C(O)c3ccccc3S(=O)(=O)N2C)s1 [Trometamol Salt, trometamol salt of meloxicam]
4 |  |  | 8.06 | Cc1cnc(NC(=O)C2=C([O-])c3ccccc3S(=O)(=O)N2C)s1.[Na+] [Sodium Salt, Sodium salt of meloxicam]
